# Data from PubChem BioAssay AID1963442 (Molecular Pharmacology Branch, DTP, NCI, 2024).
# pIC50: −log10 of the molar value.
# Tested on: MPNST complex spheroid with HUVEC/MSC, growth, % test/control
# Experiment: Anticancer human tumor MPNST cell line growth inhibition [Asc];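 note: compounds left on spheroids for seven days before reading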
# Conditions: for pIC50: curve of first compound; for viability, T/C: stronger effect = lower value
# Procedure, shortened: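 Stromal components (HUVEC and hMSC) are co-assembled with the cancer cells into multicellular spheroids. Drugs are then added singly or paired, at concentrations falling by half-log increments from a clinically achievable maximum, capped at 10 microM without known Cmax.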
# [1] = second compound 0.1 µM, first compound 0.0316 µM
# [2] = second compound 0.1 µM, first compound 0.1 µM
# [3] = second compound 0.1 µM, first compound 0.316 µM
# [4] = second compound 0.1 µM, first compound 1 µM
# [5] = second compound 0.1 µM, first compound 3.16 µM
# [6] = second compound 0.1 µM, first compound 10 µM
# [7] = second compound 0.316 µM, first compound 0.0316 µM
# [8] = second compound 0.316 µM, first compound 0.1 µM
# [9] = second compound 0.316 µM, first compound 0.316 µM
# [10] = second compound 0.316 µM, first compound 1 µM
# [11] = second compound 0.316 µM, first compound 3.16 µM
# [12] = second compound 0.316 µM, first compound 10 µM
# [13] = second compound 1 µM, first compound 0.0316 µM
# [14] = second compound 1 µM, first compound 0.1 µM
# [15] = second compound 1 µM, first compound 0.316 µM
# [16] = second compound 1 µM, first compound 1 µM
# [17] = second compound 1 µM, first compound 3.16 µM
# [18] = second compound 1 µM, first compound 10 µM
# [19] = second compound 3.16 µM, first compound 0.0316 µM
# [20] = second compound 3.16 µM, first compound 0.1 µM
# [21] = second compound 3.16 µM, first compound 0.316 µM
# [22] = second compound 3.16 µM, first compound 1 µM
# [23] = second compound 3.16 µM, first compound 3.16 µM
# [24] = second compound 3.16 µM, first compound 10 µM
# [25] = second compound 10 µM, first compound 0.0316 µM
# [26] = second compound 10 µM, first compound 0.1 µM
# [27] = second compound 10 µM, first compound 0.316 µM
# [28] = second compound 10 µM, first compound 1 µM
# [29] = second compound 10 µM, first compound 3.16 µM
# [30] = second compound 10 µM, first compound 10 µM
structure (smiles),measurement,setting,value
C#Cc1c(F)ccc2cc(O)cc(-c3ncc4c(N5CC6CCC(C5)N6)nc(OCC56CCCN5CC(F)C6)nc4c3F)c12 (stereo not given) + Cc1c(S(C)(=O)=O)c(-c2cc(F)cc(N3CCN(c4ccc(NS(=O)(=O)c5ccc(NC(CCN6CCC(C(=O)OCCCP(=O)(O)O)CC6)CSc6ccccc6)c(S(=O)(=O)C(F)(F)F)c5)cc4)CC3)c2)c(-c2ccc(Cl)cc2)n1C(C)C,pIC50,second compound 0.1 µM,< 5.00
same,pIC50,second compound 0.316 µM,< 5.00
same,pIC50,second compound 1 µM,< 5.00
same,pIC50,second compound 3.16 µM,< 5.00
same,pIC50,second compound 10 µM,< 5.00
same,"viability, T/C",[1],99.2%
same,"viability, T/C",[2],104%
same,"viability, T/C",[3],92.9%
same,"viability, T/C",[4],103%
same,"viability, T/C",[5],99.9%
same,"viability, T/C",[6],101%
same,"viability, T/C",[7],93.4%
same,"viability, T/C",[8],105%
same,"viability, T/C",[9],110%
same,"viability, T/C",[10],94.7%
same,"viability, T/C",[11],91%
same,"viability, T/C",[12],96.5%
same,"viability, T/C",[13],97%
same,"viability, T/C",[14],99.2%
same,"viability, T/C",[15],101%
same,"viability, T/C",[16],95.4%
same,"viability, T/C",[17],93.4%
same,"viability, T/C",[18],77%
same,"viability, T/C",[19],80.5%
same,"viability, T/C",[20],91.2%
same,"viability, T/C",[21],117%
same,"viability, T/C",[22],101%
same,"viability, T/C",[23],78.2%
same,"viability, T/C",[24],71.8%
same,"viability, T/C",[25],121%
same,"viability, T/C",[26],135%
same,"viability, T/C",[27],118%
same,"viability, T/C",[28],158%
same,"viability, T/C",[29],108%
same,"viability, T/C",[30],124%
C=C(F)C(=O)N1CCN(c2nc(OCC3CCCN3C)nc3c2CCN(c2cccc4cccc(Cl)c24)C3)CC1CC#N (stereo not given) + Cc1c(S(C)(=O)=O)c(-c2cc(F)cc(N3CCN(c4ccc(NS(=O)(=O)c5ccc(NC(CCN6CCC(C(=O)OCCCP(=O)(O)O)CC6)CSc6ccccc6)c(S(=O)(=O)C(F)(F)F)c5)cc4)CC3)c2)c(-c2ccc(Cl)cc2)n1C(C)C,pIC50,second compound 0.1 µM,< 5.00
same,pIC50,second compound 0.316 µM,5.43
same,pIC50,second compound 1 µM,5.54
same,pIC50,second compound 3.16 µM,5.70
same,pIC50,second compound 10 µM,5.48
same,"viability, T/C",[1],65.5%
same,"viability, T/C",[2],66.2%
same,"viability, T/C",[3],69.8%
same,"viability, T/C",[4],81.1%
same,"viability, T/C",[5],74.7%
same,"viability, T/C",[6],51.3%
same,"viability, T/C",[7],67.2%
same,"viability, T/C",[8],61.1%
same,"viability, T/C",[9],69.6%
same,"viability, T/C",[10],58%
same,"viability, T/C",[11],52.4%
same,"viability, T/C",[12],36.2%
same,"viability, T/C",[13],73.5%
same,"viability, T/C",[14],75.4%
same,"viability, T/C",[15],67.6%
same,"viability, T/C",[16],53.9%
same,"viability, T/C",[17],53.5%
same,"viability, T/C",[18],41.1%
same,"viability, T/C",[19],78.2%
same,"viability, T/C",[20],70%
same,"viability, T/C",[21],64.5%
same,"viability, T/C",[22],57.3%
same,"viability, T/C",[23],46.2%
same,"viability, T/C",[24],32.7%
same,"viability, T/C",[25],53.5%
same,"viability, T/C",[26],65.8%
same,"viability, T/C",[27],71.2%
same,"viability, T/C",[28],64.4%
same,"viability, T/C",[29],50.8%
same,"viability, T/C",[30],30.3%
CNC(C)C(=O)NC1CN(S(=O)(=O)c2cccc(S(=O)(=O)N3CCC4CCC(C(=O)NC(c5ccccc5)c5ccccc5)N4C(=O)C(NC(=O)C(C)NC)C3)c2)CCC2CCC(C(=O)NC(c3ccccc3)c3ccccc3)N2C1=O (stereo not given) + Cc1c(S(C)(=O)=O)c(-c2cc(F)cc(N3CCN(c4ccc(NS(=O)(=O)c5ccc(NC(CCN6CCC(C(=O)OCCCP(=O)(O)O)CC6)CSc6ccccc6)c(S(=O)(=O)C(F)(F)F)c5)cc4)CC3)c2)c(-c2ccc(Cl)cc2)n1C(C)C,pIC50,second compound 0.1 µM,< 6.00
same,pIC50,second compound 0.316 µM,< 6.00
same,pIC50,second compound 1 µM,< 6.00
same,pIC50,second compound 3.16 µM,< 6.00
same,pIC50,second compound 10 µM,< 6.00
same,"viability, T/C","second compound 0.1 µM, first compound 0.00316 µM",121%
same,"viability, T/C","second compound 0.1 µM, first compound 0.01 µM",143%
same,"viability, T/C",[1],162%
same,"viability, T/C",[2],165%
same,"viability, T/C",[3],126%
same,"viability, T/C",[4],108%
same,"viability, T/C","second compound 0.316 µM, first compound 0.00316 µM",139%
same,"viability, T/C","second compound 0.316 µM, first compound 0.01 µM",150%
same,"viability, T/C",[7],127%
same,"viability, T/C",[8],149%
same,"viability, T/C",[9],121%
same,"viability, T/C",[10],135%
same,"viability, T/C","second compound 1 µM, first compound 0.00316 µM",145%
same,"viability, T/C","second compound 1 µM, first compound 0.01 µM",150%
same,"viability, T/C",[13],152%
same,"viability, T/C",[14],147%
same,"viability, T/C",[15],194%
same,"viability, T/C",[16],160%
same,"viability, T/C","second compound 3.16 µM, first compound 0.00316 µM",132%
same,"viability, T/C","second compound 3.16 µM, first compound 0.01 µM",185%
same,"viability, T/C",[19],171%
same,"viability, T/C",[20],141%
same,"viability, T/C",[21],151%
same,"viability, T/C",[22],159%
same,"viability, T/C","second compound 10 µM, first compound 0.00316 µM",143%
same,"viability, T/C","second compound 10 µM, first compound 0.01 µM",200%
same,"viability, T/C",[25],216%
same,"viability, T/C",[26],159%
same,"viability, T/C",[27],185%
same,"viability, T/C",[28],179%
Cc1nc(N2CCC3(CC2)COC(C)C3N)c(CO)nc1Sc1ccnc(N)c1Cl (stereo not given) + Cc1c(S(C)(=O)=O)c(-c2cc(F)cc(N3CCN(c4ccc(NS(=O)(=O)c5ccc(NC(CCN6CCC(C(=O)OCCCP(=O)(O)O)CC6)CSc6ccccc6)c(S(=O)(=O)C(F)(F)F)c5)cc4)CC3)c2)c(-c2ccc(Cl)cc2)n1C(C)C,pIC50,second compound 0.1 µM,< 5.52
same,pIC50,second compound 0.316 µM,< 5.52
same,pIC50,second compound 1 µM,< 5.52
same,pIC50,second compound 3.16 µM,< 5.52
same,pIC50,second compound 10 µM,< 5.52
same,"viability, T/C","second compound 0.1 µM, first compound 0.00949 µM",117%
same,"viability, T/C","second compound 0.1 µM, first compound 0.03 µM",152%
same,"viability, T/C","second compound 0.1 µM, first compound 0.0949 µM",143%
same,"viability, T/C","second compound 0.1 µM, first compound 0.3 µM",121%
same,"viability, T/C","second compound 0.1 µM, first compound 0.949 µM",104%
same,"viability, T/C","second compound 0.1 µM, first compound 3 µM",112%
same,"viability, T/C","second compound 0.316 µM, first compound 0.00949 µM",130%
same,"viability, T/C","second compound 0.316 µM, first compound 0.03 µM",136%
same,"viability, T/C","second compound 0.316 µM, first compound 0.0949 µM",157%
same,"viability, T/C","second compound 0.316 µM, first compound 0.3 µM",125%
same,"viability, T/C","second compound 0.316 µM, first compound 0.949 µM",117%
same,"viability, T/C","second compound 0.316 µM, first compound 3 µM",79.5%
same,"viability, T/C","second compound 1 µM, first compound 0.00949 µM",121%
same,"viability, T/C","second compound 1 µM, first compound 0.03 µM",148%
same,"viability, T/C","second compound 1 µM, first compound 0.0949 µM",126%
same,"viability, T/C","second compound 1 µM, first compound 0.3 µM",135%
same,"viability, T/C","second compound 1 µM, first compound 0.949 µM",96.2%
same,"viability, T/C","second compound 1 µM, first compound 3 µM",93.6%
same,"viability, T/C","second compound 3.16 µM, first compound 0.00949 µM",136%
same,"viability, T/C","second compound 3.16 µM, first compound 0.03 µM",141%
same,"viability, T/C","second compound 3.16 µM, first compound 0.0949 µM",164%
same,"viability, T/C","second compound 3.16 µM, first compound 0.3 µM",108%
same,"viability, T/C","second compound 3.16 µM, first compound 0.949 µM",117%
same,"viability, T/C","second compound 3.16 µM, first compound 3 µM",88.3%
same,"viability, T/C","second compound 10 µM, first compound 0.00949 µM",175%
same,"viability, T/C","second compound 10 µM, first compound 0.03 µM",159%
same,"viability, T/C","second compound 10 µM, first compound 0.0949 µM",153%
same,"viability, T/C","second compound 10 µM, first compound 0.3 µM",108%
same,"viability, T/C","second compound 10 µM, first compound 0.949 µM",125%
same,"viability, T/C","second compound 10 µM, first compound 3 µM",94.4%
